Legend:
Calcitonin (CGRP) = biological target: T1, Calcitonin (CGRP) (Homo sapiens, UniProt O60894+Q16602); experiment: Aequorin assay, CGRP receptor; assay type: cell-based; conditions: CHO-AEQ
T1 construct: expressed in transfected cells; host or cells: CHO-AEQ (CHO-K1 coexpressing mitochondrial apoaequorin)
Description: (§1) Receptor […] activity assays were performed using 8′OH-2-CF3-dihydroergotamine (8′OH-2-CF3-DHE). Table 1 summarizes the cell lines (CHO-K1/HEK293 transfected with relevant human receptor) and the assays performed to detect any agonist or antagonist activity.
(§2) Aequorin assays were conducted to monitor activity for 8′OH-2CF3-dihydroergotamine (8′OH-2CF3-DHE) against the receptors indicated in Table 1 above (except for mGlu3 and mGlu5). CHO-K1 cells coexpressing mitochondrial apoaequorin and the recombinant human receptor of interest were grown to mid-log phase in culture media without antibiotics and then detached with PBS-EDTA, centrifuged and resuspended in assay buffer (DMEM/HAM's F12 with HEPES, without phenol red+0.1% BSA, protease free) at a concentration of 1×10^6 cell/mL. […]
(§3) 50 μL of the cell suspension was mixed with 50 μL of test or reference agonist in a 96-well plate. The resulting emission of light was recorded using Hamamatsu Functional Drug Screening System 6000 (FDSS 6000) luminometer. […]
(§4) To standardize the emission of recorded light (and determine of the “100% signal”) across plates and across different experiments, some wells contained 100 μM digitonin or a saturating concentration of ATP (20 μM).

NK1 = biological target: T2, NK1 (Homo sapiens, UniProt P25103); experiment: Aequorin assay, Neurokinin NK1; assay type: cell-based; conditions: antagonism, CHO-AEQ
T2 construct: expressed in transfected cells; host or cells: CHO-AEQ (CHO-K1 coexpressing mitochondrial apoaequorin)
Description: as §1, §2, §3, §4

Serotonin 5-HT2B = biological target: T3, Serotonin 5-HT2B (Homo sapiens, UniProt P41595); experiment: Aequorin assay, Serotonin 5-HT2B; assay type: cell-based; conditions: antagonism; CHO-K1 mAeq Gα16, Aequorin
T3 construct: expressed in transfected cells; host or cells: CHO-K1 mAeq Gα16
Description: as §1, §2, §3, §4

OX1 = biological target: T4, OX1 (Homo sapiens, UniProt O43613); experiment: Aequorin assay, Orexin OX1; assay type: cell-based; conditions: antagonism, CHO-AEQ
T4 construct: expressed in transfected cells; host or cells: CHO-AEQ (CHO-K1 coexpressing mitochondrial apoaequorin)
Description: as §1, §2, §3, §4

Adrenergic α1B = biological target: T5, Adrenergic α1B (Homo sapiens, UniProt P35368); experiment: Aequorin assay, Adrenergic α1B; assay type: cell-based; conditions: antagonism, CHO-K1 mAeq, read-out: Activity (Antagonism: IC50), Adrenergic a1B
T5 construct: expressed in transfected cells; host or cells: CHO-K1 mAeq
Description: as §1, §2, §3, §4

[1] = system: Purinergic (P2X1/P2X2/P2X3/P2X4/P2X7); experiment: Purinergic receptor QPatch patch clamp study; assay type: cell-based, human; conditions: HEK293, QPatch HT, agonist and antagonist modes at 10 and 30 μM
Description: Purinergic receptor studies were conducted to monitor activity for 8′OH-2CF3-dihydroergotamine (8′OH-2CF3-DHE) against the P2X1, P2X2, P2X3, P2X4 and P2X7 receptors. Human recombinant purinergic receptor expressing HEK293 cells were used and receptor activity was evaluated at room temperature using QPatch HT® (Sophion Bioscience A/S, Denmark) automatic parallel patch clamp system. 8′OH-2CF3-DHE was evaluated in both agonist and antagonist modes at 10 and 30 μM. Each concentration was tested in triplicates.

Dopamine D4 = biological target: T6, Dopamine D4 (Homo sapiens, UniProt P21917); experiment: GTPγ[35S] assay, Dopamine D4; assay type: biochemical; conditions: antagonism, CHO-K1 membranes
T6 construct: expressed in transfected cells; host or cells: CHO-K1 (membrane extracts)
Description: as §1
(§5) GTPγS studies were conducted to monitor agonist activity for 8′OH-2CF3-dihydroergotamine (8′OH-2CF3-DHE) against the receptors indicated in Table 1 above. Reagents used were the following: Assay buffer (20 mM HEPES, pH 7.4; 100 mM NaCl; 10 μg/mL saponin; 30 mM MgCl2); Membranes (recombinant human receptor membrane extracts were thawed on ice and diluted in assay buffer to give 1000 μg/mL ([…]) and kept on ice); GDP (diluted in assay buffer to give 30 μM solution (3 μM final concentration); beads (PVT-WGA (Amersham, RPNQ001), diluted in assay buffer at 25 mg/mL (0.25 mg/10 μL)); GTPγ^35S (Perkin Elmer, NEG030X), diluted in assay buffer to give 0.1 nM (final concentration); and ligand (agonist/antagonist diluted in assay buffer).
(§6) Membranes were mixed with GDP (1:1) and incubated for at least 15 minutes on ice. In parallel GTPγ^35S was mixed with the beads (1:1) just before starting the reaction. […] The plates were then centrifuged for 10 minutes at 2000 rpm and incubated at room temperature for 1 hour and counted for 1 min/well with a Perkin Elmer TopCount reader.

Adrenergic α2B = biological target: T7, Adrenergic α2B (Homo sapiens, UniProt P18089); experiment: GTPγ[35S] assay, Adrenergic α2B; assay type: biochemical; conditions: antagonism, CHO-K1 membranes, read-out: Activity (Antagonism: IC50), Adrenergic a2B
T7 construct: expressed in transfected cells; host or cells: CHO-K1 (membrane extracts)
Description: as §1, §5, §6

Serotonin 5-HT3 = biological target: T8, Serotonin 5-HT3 (Homo sapiens, UniProt P46098); experiment: Aequorin assay, Serotonin 5-HT3; assay type: cell-based; conditions: antagonism, HEK-293 mAeq
T8 construct: expressed in transfected cells; host or cells: HEK-293 mAeq
Description: as §1, §2, §3, §4

Adrenergic α1D = biological target: T9, Adrenergic α1D (Homo sapiens, UniProt P25100); experiment: Aequorin assay, Adrenergic α1D; assay type: cell-based; conditions: antagonism, CHO-K1 mAeq, read-out: Activity (Antagonism: IC50), Adrenergic a1D
T9 construct: expressed in transfected cells; host or cells: CHO-K1 mAeq
Description: as §1, §2, §3, §4

T3 sequence (P41595 whole entry): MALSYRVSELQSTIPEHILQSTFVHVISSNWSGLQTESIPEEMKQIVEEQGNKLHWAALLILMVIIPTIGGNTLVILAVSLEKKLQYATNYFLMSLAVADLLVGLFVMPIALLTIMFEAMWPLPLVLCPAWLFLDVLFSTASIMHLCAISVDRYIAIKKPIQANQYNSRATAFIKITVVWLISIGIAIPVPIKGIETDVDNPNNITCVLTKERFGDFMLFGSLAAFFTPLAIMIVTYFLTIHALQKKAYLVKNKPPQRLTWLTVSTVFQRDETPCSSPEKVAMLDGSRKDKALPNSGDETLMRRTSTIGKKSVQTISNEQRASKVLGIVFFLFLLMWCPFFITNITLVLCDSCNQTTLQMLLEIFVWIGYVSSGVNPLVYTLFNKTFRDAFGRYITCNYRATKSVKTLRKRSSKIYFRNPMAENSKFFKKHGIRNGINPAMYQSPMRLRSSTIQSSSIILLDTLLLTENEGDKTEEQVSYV
T9 sequence (P25100 whole entry): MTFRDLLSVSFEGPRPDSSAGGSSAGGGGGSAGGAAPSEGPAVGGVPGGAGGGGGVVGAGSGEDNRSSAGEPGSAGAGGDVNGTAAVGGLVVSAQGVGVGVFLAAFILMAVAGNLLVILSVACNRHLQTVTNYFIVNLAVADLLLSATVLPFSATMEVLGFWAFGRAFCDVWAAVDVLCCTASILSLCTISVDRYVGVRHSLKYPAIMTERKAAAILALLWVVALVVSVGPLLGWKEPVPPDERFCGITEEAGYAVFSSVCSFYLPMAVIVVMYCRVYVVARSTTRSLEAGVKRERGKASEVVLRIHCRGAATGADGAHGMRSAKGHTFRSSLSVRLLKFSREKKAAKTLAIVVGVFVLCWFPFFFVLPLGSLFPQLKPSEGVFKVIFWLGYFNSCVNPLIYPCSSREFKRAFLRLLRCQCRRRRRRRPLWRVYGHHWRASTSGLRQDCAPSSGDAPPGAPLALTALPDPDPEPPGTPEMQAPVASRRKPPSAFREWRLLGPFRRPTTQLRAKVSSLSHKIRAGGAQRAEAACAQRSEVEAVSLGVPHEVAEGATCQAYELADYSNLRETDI
T8 sequence (P46098 24-478): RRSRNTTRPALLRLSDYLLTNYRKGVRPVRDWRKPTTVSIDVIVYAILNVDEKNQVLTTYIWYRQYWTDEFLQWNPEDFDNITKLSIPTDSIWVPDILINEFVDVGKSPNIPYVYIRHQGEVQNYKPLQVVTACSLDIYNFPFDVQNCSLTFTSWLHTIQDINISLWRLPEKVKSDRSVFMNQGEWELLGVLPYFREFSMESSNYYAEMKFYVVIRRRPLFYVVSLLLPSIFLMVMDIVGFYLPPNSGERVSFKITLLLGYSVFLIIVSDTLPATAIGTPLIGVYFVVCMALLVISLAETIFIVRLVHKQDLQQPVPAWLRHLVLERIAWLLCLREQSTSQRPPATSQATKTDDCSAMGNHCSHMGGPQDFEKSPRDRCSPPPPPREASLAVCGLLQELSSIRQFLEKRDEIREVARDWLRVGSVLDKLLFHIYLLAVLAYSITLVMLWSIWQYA
T6 sequence (P21917 whole entry): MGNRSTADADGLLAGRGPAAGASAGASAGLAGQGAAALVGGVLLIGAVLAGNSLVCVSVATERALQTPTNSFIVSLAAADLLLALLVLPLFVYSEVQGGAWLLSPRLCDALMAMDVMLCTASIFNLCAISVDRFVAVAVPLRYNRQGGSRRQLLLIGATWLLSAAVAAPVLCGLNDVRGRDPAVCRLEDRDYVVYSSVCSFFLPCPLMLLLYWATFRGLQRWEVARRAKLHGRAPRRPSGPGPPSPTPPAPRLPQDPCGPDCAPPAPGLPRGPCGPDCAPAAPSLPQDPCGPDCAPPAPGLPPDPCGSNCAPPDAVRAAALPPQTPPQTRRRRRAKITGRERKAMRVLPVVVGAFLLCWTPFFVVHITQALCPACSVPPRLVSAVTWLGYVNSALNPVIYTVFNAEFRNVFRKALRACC
T7 sequence (P18089 whole entry): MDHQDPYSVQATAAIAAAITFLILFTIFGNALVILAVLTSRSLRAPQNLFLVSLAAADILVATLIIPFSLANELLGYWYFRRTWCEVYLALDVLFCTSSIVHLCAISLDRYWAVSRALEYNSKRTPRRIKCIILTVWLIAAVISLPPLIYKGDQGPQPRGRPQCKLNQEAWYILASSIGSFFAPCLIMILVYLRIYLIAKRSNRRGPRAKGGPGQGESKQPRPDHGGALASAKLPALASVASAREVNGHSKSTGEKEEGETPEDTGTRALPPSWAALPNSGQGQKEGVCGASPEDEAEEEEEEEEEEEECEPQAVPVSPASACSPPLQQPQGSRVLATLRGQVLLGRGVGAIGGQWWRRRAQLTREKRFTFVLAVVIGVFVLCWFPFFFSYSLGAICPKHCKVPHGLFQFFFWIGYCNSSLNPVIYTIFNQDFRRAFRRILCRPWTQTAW
T5 sequence (P35368 whole entry): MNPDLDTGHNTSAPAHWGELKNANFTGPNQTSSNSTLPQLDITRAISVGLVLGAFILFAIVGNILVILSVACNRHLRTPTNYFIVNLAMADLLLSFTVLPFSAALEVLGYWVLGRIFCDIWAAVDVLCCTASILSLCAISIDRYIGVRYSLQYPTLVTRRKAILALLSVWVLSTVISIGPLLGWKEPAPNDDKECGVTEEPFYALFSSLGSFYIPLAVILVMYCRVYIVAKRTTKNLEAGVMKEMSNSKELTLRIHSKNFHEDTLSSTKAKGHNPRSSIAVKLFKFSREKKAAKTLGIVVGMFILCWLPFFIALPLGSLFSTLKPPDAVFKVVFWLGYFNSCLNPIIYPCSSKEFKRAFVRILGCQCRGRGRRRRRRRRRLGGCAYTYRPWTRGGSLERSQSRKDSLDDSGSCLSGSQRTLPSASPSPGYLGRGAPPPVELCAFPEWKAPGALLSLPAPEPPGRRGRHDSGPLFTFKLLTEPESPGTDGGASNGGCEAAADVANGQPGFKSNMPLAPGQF
T2 sequence (P25103 whole entry): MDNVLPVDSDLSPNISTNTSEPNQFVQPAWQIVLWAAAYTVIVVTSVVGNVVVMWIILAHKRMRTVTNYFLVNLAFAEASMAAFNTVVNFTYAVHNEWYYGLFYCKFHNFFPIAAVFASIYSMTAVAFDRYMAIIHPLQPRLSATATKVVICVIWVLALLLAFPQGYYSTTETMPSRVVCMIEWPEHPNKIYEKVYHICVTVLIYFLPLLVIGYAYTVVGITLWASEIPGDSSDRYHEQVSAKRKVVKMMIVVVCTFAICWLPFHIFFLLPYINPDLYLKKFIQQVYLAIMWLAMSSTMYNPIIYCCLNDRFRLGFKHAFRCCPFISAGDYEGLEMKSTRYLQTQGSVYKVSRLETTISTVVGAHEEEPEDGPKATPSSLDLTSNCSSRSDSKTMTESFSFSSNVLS
T4 sequence (O43613 whole entry): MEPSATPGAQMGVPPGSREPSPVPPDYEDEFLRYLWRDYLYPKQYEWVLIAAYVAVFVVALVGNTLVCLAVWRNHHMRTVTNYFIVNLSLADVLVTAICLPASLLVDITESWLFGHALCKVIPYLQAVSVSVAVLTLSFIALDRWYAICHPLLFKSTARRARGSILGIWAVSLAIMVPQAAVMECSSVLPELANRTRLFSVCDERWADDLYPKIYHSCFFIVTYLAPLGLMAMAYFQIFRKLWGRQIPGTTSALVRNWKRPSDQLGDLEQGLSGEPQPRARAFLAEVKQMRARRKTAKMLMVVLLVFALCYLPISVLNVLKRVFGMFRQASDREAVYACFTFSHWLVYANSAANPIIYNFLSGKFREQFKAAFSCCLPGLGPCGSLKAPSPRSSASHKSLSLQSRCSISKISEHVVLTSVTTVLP
T1 sequence (Q16602 23-461): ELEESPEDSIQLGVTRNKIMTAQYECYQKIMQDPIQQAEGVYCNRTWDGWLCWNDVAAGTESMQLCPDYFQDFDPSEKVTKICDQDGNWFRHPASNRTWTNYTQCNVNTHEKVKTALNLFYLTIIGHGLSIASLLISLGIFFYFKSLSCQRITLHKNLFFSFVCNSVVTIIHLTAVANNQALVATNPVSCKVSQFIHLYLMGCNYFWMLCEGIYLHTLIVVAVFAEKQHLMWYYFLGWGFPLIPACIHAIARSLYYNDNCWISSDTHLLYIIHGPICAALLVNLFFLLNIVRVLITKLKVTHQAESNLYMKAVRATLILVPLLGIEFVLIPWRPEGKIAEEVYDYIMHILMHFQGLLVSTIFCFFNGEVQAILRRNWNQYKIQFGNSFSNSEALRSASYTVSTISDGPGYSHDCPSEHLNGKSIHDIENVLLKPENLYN
T1 sequence (O60894 27-148 partner): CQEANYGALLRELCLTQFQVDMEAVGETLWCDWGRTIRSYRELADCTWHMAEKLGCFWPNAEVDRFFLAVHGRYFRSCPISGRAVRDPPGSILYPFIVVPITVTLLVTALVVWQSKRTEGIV

SMILES: CN1C[C@H](C(=O)N[C@]2(C)O[C@@]3(O)[C@@H]4CC[C@@H](O)N4C(=O)[C@H](Cc4ccccc4)N3C2=O)C[C@@H]2c3cccc4[nH]c(C(F)(F)F)c(c34)C[C@H]21 [8′OH-2-CF3-DHE, 8′-Hydroxy-2-CF3-dihydroergotamine]
- Activity (Agonism: EC50; Antagonism: IC50), Calcitonin (CGRP) (Calcitonin (CGRP)): Inactive
- IC50 (NK1): > 1000 nM
- IC50 (Serotonin 5-HT2B): 88.2 nM
- IC50 (OX1): > 10000 nM
- IC50 (Adrenergic α1B): 10.9 nM
- Activity (Agonism: EC50; Antagonism: IC50), Purinergic (P2X1/P2X2/P2X3/P2X4/P2X7) [1]: Inactive
- IC50 (Dopamine D4): > 10000 nM
- IC50 (Adrenergic α2B): 777 nM
- IC50 (Serotonin 5-HT3): 2760 nM
- IC50 (Adrenergic α1D): 9.58 nM

From patent publication US20150238487A1, “NOVEL ERGOLINE DERIVATIVES AND USES THEREOF” (MAP Pharmaceuticals, Inc., priority 2012, published 2015)
